From PubChem BioAssay (NCI)
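Protocol summary: plate cells (96-well), add compound at 5 concentrations, incubate 48 h, interpolate endpoints linearly. TGI marks complete inhibition of growth.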

Assays:
Experiment in all cases: NCI anticancer screen, dose series, 48 h
[1] = test system: BT-549 breast
[2] = test system: LOX IMVI melanoma
[3] = test system: MALME-3M melanoma
[4] = test system: MDA-MB-435
[5] = test system: SF-268 CNS
[6] = test system: SK-MEL-2 melanoma
[7] = test system: SN12C renal
[8] = test system: TK-10 renal
[9] = test system: UACC-257 melanoma
[10] = test system: UO-31 renal

Structure (SMILES) | TGI [1] [µM] | TGI [2] [µM] | TGI [3] [µM] | TGI [4] [µM] | TGI [5] [µM] | TGI [6] [µM] | TGI [7] [µM] | TGI [8] [µM] | TGI [9] [µM] | TGI [10] [µM]
O=C1c2cccnc2S(=O)(=O)N1c1ccc([N+](=O)[O-])cc1 | > 100 | > 100 | > 100 | > 100 | > 100 | > 100 | > 100 | > 100 | > 100 | > 100
O=C1/C(=C/c2ccncc2)C(n2cccc2)c2c(Br)sc(Br)c21 (stereo not given) | 16.8 | 4.54 | 10.9 | 4.66 | 11 | 6.56 | 16.4 | 14.6 | 5.03 | 5.42
CC1(C)N=C(N)N=C(N)N1c1cccc(OCc2cccc(N)c2)c1 | > 100 | > 100 | > 100 | > 100 | > 100 | > 100 | > 100 | > 100 | 55 | > 100
